According to patent US10111437B2, “Substituted guanidines as fungicides” (Nippon Soda Co., Ltd., priority 2015, dated 2018):

Experiments:
[1] = system: Apple scab fungus (Venturia inaequalis); test: Apple scab control test (foliar spray on apple seedlings); type: in vivo; details: 125 ppm active ingredient, sprayed on apple seedlings (variety Orin) before inoculation, vs untreated
Description: The dilution was sprayed to apple seedlings (variety “Orin”, 3 to 4 leaf stage) grown in clay pots. […] The control value was calculated by the following equation. [formula]

[2] = system: Tomato late blight fungus (Phytophthora infestans); test: whole plant or invertebrate; type: in vivo; details: foliar, 96 h, read-out: control value
[3] = system: wheat leaf rust fungus (Puccinia recondita); test: Wheat leaf rust control test (foliar spray on wheat seedlings); type: in vivo; details: 240 h, 125 ppm active ingredient, sprayed on wheat seedlings (variety Norin 61) before inoculation, 10 days, vs untreated
[4] = system: cucumber gray mold fungus (Botrytis cinerea); test: Cucumber gray mold control test (foliar spray on cucumber seedlings); details: in Cucumis sativus, 96 h, read-out: control value

Measured: pest or weed control at 125 ppm

N=C(N)NCCCCCCCNC(=N)NCCCOc1ccc(C(=N)N)cc1 [compound 29, 4-[3-[[N-(7-guanidinoheptyl)carbamimidoyl]amino]propoxy]benzamidine]
≥ 75%: all assays above

N=C(N)NCCCCCCCNC(=N)NCCCCOc1ccc(C(=N)N)cn1 [compound 32, 6-(4-(3-(7-guanidinoheptyl)guanidino)butoxy)nicotinimidamide]
≥ 75%: all assays above

N=C(N)NCCCCCCCNC(=N)NCCCc1cc2cc(C(=N)N)ccc2o1 [compound 34, 2-(3-(3-(7-guanidinoheptyl)guanidino)propyl)benzofuran-5-carboximidamide]
≥ 75%: all assays above

N=C(N)c1ccc(OCCCCn2ccn(CCCOc3ccc(C(=N)N)cc3)c2=N)cc1 [compound 40, 4-[4-[3-[3-(4-carbamimidoylphenoxy)propyl]-2-imino-imidazol-1-yl]butoxy]benzamidine]
≥ 75%: all assays above

N=C(NCCCOc1ccc(C(=N)N)cc1)NCCCOc1ccc(C(=N)N)cc1 [compound 42, 4-[3-[[N-[3-(4-carbamimidoylphenoxy)propyl]carbamimidoyl]amino]propoxy]benzamidine]
≥ 75%: all assays above

N=C(N)NCCCCCCCn1ccn(CCCCOc2ccc(C(=N)N)cc2)c1=N [compound 52, 4-[4-[3-(7-guanidinoheptyl)-2-imino-imidazol-1-yl]butoxy]benzamidine]
≥ 75%: all assays above

CN=C(NCCCOc1ccc(C(=N)N)cc1)NCCCOc1ccc(C(=N)N)cc1 [compound 57, 4-[3-[[N-[3-(4-carbamimidoylphenoxy)propyl]-N′-methyl-carbamimidoyl]amino]propoxy]benzamidine]
≥ 75%: all assays above

N=C(N)NCCCCCCCCNC(=N)NCCCCOc1ccc(C(=N)N)cn1 [compound 61, 6-[4-[[N-(8-guanidinooctyl)carbamimidoyl]amino]butoxy]pyridine-3-carboxamidine]
≥ 75%: all assays above

N=C(N)c1ccc(OCCCn2ccn(CCCOc3ccc(C(=N)N)c(F)c3)c2=N)cc1F [compound 103]
≥ 75%: all assays above

Cc1cn(CCCCOc2ccc(C(=N)N)cc2)c(=N)n1CCCCOc1ccc(C(=N)N)cc1 [compound 107]
≥ 75%: all assays above

Cc1c(C)n(CCCOc2ccc(C(=N)N)cc2)c(=N)n1CCCOc1ccc(C(=N)N)cc1 [compound 109]
≥ 75%: all assays above

N=C(N)NCCCCCCCCNC(=N)NCCCOc1ccc(C(=N)N)cc1Cl [compound 112]
≥ 75%: all assays above

Cc1cn(CCCOc2ccc(C(=N)N)cc2)c(=N)n1CCCOc1ccc(C(=N)N)cc1 [compound 114]
≥ 75%: all assays above

N=C(N)NCCCCCCCCNC(=N)NCCCOc1ccc(C(=N)N)cn1 [compound 120]
≥ 75%: all assays above

CNC(=N)c1ccc(OCCCn2ccn(CCCOc3ccc(C(=N)N)cc3)c2=N)cc1 [compound 122]
≥ 75%: all assays above

CNC(=N)c1ccc(OCCCCn2ccn(CCCOc3ccc(C(=N)N)cc3)c2=N)cc1 [compound 124]
≥ 75%: all assays above

N=C(N)c1ccc(OCCCn2ccn(CCCc3cc4cc(C(=N)N)ccc4o3)c2=N)cc1 [compound 126]
≥ 75%: all assays above

CN(CCCOc1ccc(C(=N)N)cc1)C(=N)NCCCCCCCCNC(=N)N [compound 128]
≥ 75%: all assays above

CN(C)/C(=N\CCCOc1ccc(C(=N)N)cc1)NCCCOc1ccc(C(=N)N)cc1 [compound 130]
≥ 75%: all assays above

N=C(N)NCCCCCCNC(=N)NCCCCOc1ccc(C(=N)N)cc1 [compound 136]
≥ 75%: all assays above

CN(CCCCCCCCNC(=N)N)C(=N)NCCCOc1ccc(C(=N)N)cc1 [compound 140]
≥ 75%: all assays above

N=C(NCCCOCc1ccc(C(=N)N)cc1)NCCCOc1ccc(C(=N)N)cc1 [compound 142]
≥ 75%: all assays above

N=C(N)NCCCCCCCCNC(=N)NCCCOCc1ccc(C(=N)N)cc1 [compound 145]
≥ 75%: all assays above

N=C(NCC/C=C/c1ccc(C(=N)N)cc1)NCC/C=C/c1ccc(C(=N)N)cc1 [compound 151]
≥ 75%: all assays above

N=C(N)NCCCCCCCCNC(=N)NCCC#Cc1ccc(C(=N)N)cc1 [compound 153]
≥ 75%: all assays above

N=C(N)NCCCCCCCCNC(=N)NCCC=Cc1ccc(C(=N)N)cc1 [compound 157]
≥ 75%: all assays above

N=C(N)NCCCCCCCNC(=N)NCCC=Cc1ccc(C(=N)N)cc1 [compound 163]
≥ 75%: all assays above

N=C(N)NCCCCCCCCNC(=N)NCC#Cc1ccc(C(=N)N)cc1 [compound 165]
≥ 75%: all assays above

N=C(N)NCCCCCCCCNC(=N)NC/C=C/c1ccc(C(=N)N)cc1 [compound 167]
≥ 75%: all assays above

N=C(N)NCCCCCCCCNC(=N)NCCCc1ccc(C(=N)N)cc1 [compound 169]
≥ 75%: all assays above

N=C(N)NCCCCCCCCNC(=N)NCCCCCOc1ccc(C(=N)N)cc1 [compound 171]
≥ 75%: all assays above

N=C(N)c1ccc(OCCCn2ccn(CCCSc3ccc(C(=N)N)cc3)c2=N)cc1 [compound 173]
≥ 75%: all assays above

N=C(N)NCCCCCCCNC(=N)NCCCSc1ccc(C(=N)N)cc1 [compound 177]
≥ 75%: all assays above

N=C(N)NCCCCCCCNC(=N)NCCCOCc1ccc(C(=N)N)cc1 [compound 179]
≥ 75%: all assays above

N=C(N)NCCCCCCCCn1ccn(CCCOc2ccc(C3=NCCCN3)cc2)c1=N [compound 184]
≥ 75%: all assays above

N=C(N)NCCCCCCCNC(=N)NCCCCCOc1ccc(C(=N)N)cc1 [compound 186]
≥ 75%: all assays above

N=C(N)NCCCCCCCCNC(=N)NCCCCOc1ccc(C(=N)N)cc1 [compound 188]
≥ 75%: all assays above
